From publication PMC11480361, “Design of a Cereblon construct for crystallographic and biophysical studies of protein degraders” (Nature Communications, 2024)
“And” between values parts separate entries of the source, which are not always exact repeats. Equal entries are not always repeated.

How the values were obtained:
CRBN^midi [1] = target: T1, CRBN^midi (Homo sapiens, UniProt Q96SW2, C287N/C343E/C78I/DEL188-248/G302D/I92V/INS187GSG/K116N/L342R/L423I/Q134E/R283W/T359I/V293S); test: Thermal denaturation (turbidity, Prometheus Panta) of CRBN^midi +/- binders, Fig. 2f; type: binding; parameters: First derivative: unit not given here; details: for increase of Tm / denaturation temperature of CRBN^midi / melting temperature (Tm) of CRBN^midi in presence of binder: 100 µM binder; for increase of Tm / denaturation temperature of CRBN^midi: versus apo; for melting temperature (Tm) of CRBN^midi in presence of binder: apo Tm 44.5 °C; for First derivative: thermal denaturation trace
T1 construct: amino acids 41-187 followed by a Gly-Ser-Gly linker and amino acids 249-426; His6 (N, cleaved yes); made in house; host or cells: E. coli BL21(DE3)
T1 sequence (Q96SW2 with tags, fused parts or gaps with the stated changes limits assumed): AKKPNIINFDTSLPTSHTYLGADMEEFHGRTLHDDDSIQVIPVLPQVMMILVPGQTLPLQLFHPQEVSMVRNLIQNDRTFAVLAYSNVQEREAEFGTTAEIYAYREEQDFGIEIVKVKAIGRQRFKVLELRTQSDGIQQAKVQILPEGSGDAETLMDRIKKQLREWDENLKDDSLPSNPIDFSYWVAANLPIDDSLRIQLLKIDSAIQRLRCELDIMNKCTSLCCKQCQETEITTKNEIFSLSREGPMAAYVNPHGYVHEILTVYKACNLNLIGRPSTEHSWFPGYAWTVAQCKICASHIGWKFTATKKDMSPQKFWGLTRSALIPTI
Experimental: Protein aggregation was assessed, and turbidity values were calculated by the PR.Panta control software (NanoTemper Technologies). First derivative curves were plotted using Prism software (GraphPad version 10).

CRBN^midi [2] = target: T1, CRBN^midi; test: SEC-SAXS of CRBN^midi with binders (radius of gyration); details: for RG of ligand-bound CRBN^midi: 200 µM ligand, apo 26.73 Å; for Rg, P(r) Analysis from AUTOGNOM / dmax, P(r) analysis / Rg, Guinier analysis: Supplementary Table 3; for Rg, P(r) Analysis from AUTOGNOM: apo 26.91 ± 0.04; for dmax, P(r) analysis: apo 172.46; for Rg, Guinier analysis: binder 400 µM (mezigdomide, lenalidomide) or 200 µM (Boc-VcN, Boc-AcQ), apo 26.73 ± 0.06; as to Rg, Guinier analysis: values in Å; as to Rg, P(r) Analysis from AUTOGNOM: values in Å; as to dmax, P(r) analysis: values in Å
Experimental: Frames from SEC-SAXS that corresponded to the main protein peak, were merged using Chromixs[61] and analyzed using the ATSAS (version 3.2.1) package. Radii of gyration and molecular mass were extrapolated from the Guinier plot using Primus. Pairwise-distance distributions were calculated using GNOM[63]. The dimensionless Kratky plot[49] was obtained by manually plotting (qRg)^2I(q)/I0 against qRg.
The open conformation model was obtained by homology modelling using the SWISS-MODEL webserver (accessed April 18th 2023)[65] with the cryo-EM structure of apo-CRBN (PDB ID: 8CVP)[25] as the input structure.

[3] = T[°C] 86.7721 lenalidomide, 86.7698 Boc-VcN, 86.7691 Boc-AcQ
[4] = T[°C] 86.8918 lenalidomide, 86.8895 Boc-VcN, 86.8888 Boc-AcQ
[5] = T[°C] 87.0114 lenalidomide, 87.0091 Boc-VcN, 87.0084 Boc-AcQ
[6] = T[°C] 87.1311 lenalidomide, 87.1288 Boc-VcN, 87.1281 Boc-AcQ
[7] = T[°C] 87.2507 lenalidomide, 87.2484 Boc-VcN, 87.2477 Boc-AcQ
[8] = T[°C] 87.3704 lenalidomide, 87.3681 Boc-VcN, 87.3674 Boc-AcQ
[9] = T[°C] 87.49 lenalidomide, 87.4877 Boc-VcN, 87.487 Boc-AcQ
[10] = T[°C] 87.6097 lenalidomide, 87.6074 Boc-VcN, 87.6067 Boc-AcQ
[11] = T[°C] 87.7294 lenalidomide, 87.727 Boc-VcN, 87.7263 Boc-AcQ
[12] = T[°C] 87.849 lenalidomide, 87.8467 Boc-VcN, 87.846 Boc-AcQ
[13] = T[°C] 87.9687 lenalidomide, 87.9664 Boc-VcN, 87.9656 Boc-AcQ
[14] = T[°C] 88.0883 lenalidomide, 88.086 Boc-VcN, 88.0853 Boc-AcQ
[15] = T[°C] 88.208 lenalidomide, 88.2057 Boc-VcN, 88.205 Boc-AcQ
[16] = T[°C] 88.3276 lenalidomide, 88.3253 Boc-VcN, 88.3246 Boc-AcQ
[17] = T[°C] 88.4473 lenalidomide, 88.445 Boc-VcN, 88.4443 Boc-AcQ
[18] = T[°C] 88.567 lenalidomide, 88.5646 Boc-VcN, 88.5639 Boc-AcQ
[19] = T[°C] 88.6866 lenalidomide, 88.6843 Boc-VcN, 88.6836 Boc-AcQ
[20] = T[°C] 88.8063 lenalidomide, 88.8039 Boc-VcN, 88.8032 Boc-AcQ
[21] = T[°C] 88.9259 lenalidomide, 88.9236 Boc-VcN, 88.9229 Boc-AcQ
[22] = T[°C] 89.0456 lenalidomide, 89.0432 Boc-VcN, 89.0425 Boc-AcQ
[23] = T[°C] 89.1653 lenalidomide, 89.1629 Boc-VcN, 89.1622 Boc-AcQ
[24] = T[°C] 89.2849 lenalidomide, 89.2825 Boc-VcN, 89.2818 Boc-AcQ
[25] = T[°C] 89.4046 lenalidomide, 89.4022 Boc-VcN, 89.4015 Boc-AcQ
[26] = T[°C] 89.5242 lenalidomide, 89.5218 Boc-VcN, 89.5211 Boc-AcQ
[27] = T[°C] 89.6439 lenalidomide, 89.6415 Boc-VcN, 89.6408 Boc-AcQ
[28] = T[°C] 89.7635 lenalidomide, 89.7612 Boc-VcN, 89.7604 Boc-AcQ
[29] = T[°C] 89.8832 lenalidomide, 89.8808 Boc-VcN, 89.8801 Boc-AcQ
[30] = T[°C] 90.0028 lenalidomide, 90.0005 Boc-VcN, 89.9997 Boc-AcQ

Row | Structure (SMILES) | increase of Tm / denaturation temperature of CRBN^midi (CRBN^midi [1]) | melting temperature (Tm) of CRBN^midi in presence of binder (CRBN^midi [1]) | First derivative (CRBN^midi [1]; [3]) | First derivative (CRBN^midi [1]; [4]) | First derivative (CRBN^midi [1]; [5]) | First derivative (CRBN^midi [1]; [6]) | First derivative (CRBN^midi [1]; [7]) | First derivative (CRBN^midi [1]; [8]) | First derivative (CRBN^midi [1]; [9]) | First derivative (CRBN^midi [1]; [10]) | First derivative (CRBN^midi [1]; [11]) | First derivative (CRBN^midi [1]; [12]) | First derivative (CRBN^midi [1]; [13]) | First derivative (CRBN^midi [1]; [14]) | First derivative (CRBN^midi [1]; [15]) | First derivative (CRBN^midi [1]; [16]) | First derivative (CRBN^midi [1]; [17]) | First derivative (CRBN^midi [1]; [18]) | First derivative (CRBN^midi [1]; [19]) | First derivative (CRBN^midi [1]; [20]) | also measured
1 | C[C@H](NC(=O)OC(C)(C)C)C(=O)N[C@H]1CCC(=O)NC1=O [Boc-AcQ, tert-butyl ((S)-1-(((S)-2,6-dioxopiperidin-3-yl)amino)-1-oxopropan-2-yl)carbamate] | 8.3 °C | 52.8 °C | -0.02853 | -0.0315 | -0.03497 | -0.03881 | -0.04291 | -0.04716 | -0.05142 | -0.05268 | -0.05356 | -0.05436 | -0.05515 | -0.0559 | -0.05659 | -0.05718 | -0.05764 | -0.05798 | -0.05817 | -0.05821 | First derivative (CRBN^midi [1]; [21]): -0.0581; First derivative (CRBN^midi [1]; [22]): -0.05783; First derivative (CRBN^midi [1]; [23]): -0.05741; First derivative (CRBN^midi [1]; [24]): -0.05684; First derivative (CRBN^midi [1]; [25]): -0.05611; First derivative (CRBN^midi [1]; [26]): -0.05525; First derivative (CRBN^midi [1]; [27]): -0.05424; First derivative (CRBN^midi [1]; [28]): -0.05311; First derivative (CRBN^midi [1]; [29]): -0.05186; First derivative (CRBN^midi [1]; [30]): -0.0505; RG of ligand-bound CRBN^midi (CRBN^midi [2]): 24.29 Å and 24.3 Å; Rg, P(r) Analysis from AUTOGNOM (CRBN^midi [2]): 24.25 ± 0.04 Å; dmax, P(r) analysis (CRBN^midi [2]): 146.92 Å; Rg, Guinier analysis (CRBN^midi [2]): 24.29 ± 0.05 Å
2 | CC(C)[C@H](NC(=O)OC(C)(C)C)C(=O)NC1CC(=O)NC1=O (stereo partly drawn) [Boc-VcN, Tert-butyl ((2S)-1-((2,5-dioxopyrrolidin-3-yl)amino)-3-methyl-1-oxobutan-2-yl)carbamate] | 11.1 °C | 55.6 °C | -0.05947 | -0.05823 | -0.05736 | -0.05707 | -0.05755 | -0.05896 | -0.06138 | -0.06805 | -0.07618 | -0.08482 | -0.09355 | -0.1023 | -0.1109 | -0.1196 | -0.1282 | -0.1368 | -0.1455 | -0.1543 | First derivative (CRBN^midi [1]; [21]): -0.1632; First derivative (CRBN^midi [1]; [22]): -0.1723; First derivative (CRBN^midi [1]; [23]): -0.1815; First derivative (CRBN^midi [1]; [24]): -0.191; First derivative (CRBN^midi [1]; [25]): -0.2007; First derivative (CRBN^midi [1]; [26]): -0.2106; First derivative (CRBN^midi [1]; [27]): -0.2208; First derivative (CRBN^midi [1]; [28]): -0.2313; First derivative (CRBN^midi [1]; [29]): -0.2421; First derivative (CRBN^midi [1]; [30]): -0.2531; RG of ligand-bound CRBN^midi (CRBN^midi [2]): 23.41 Å and 23.4 Å; Rg, P(r) Analysis from AUTOGNOM (CRBN^midi [2]): 22.93 ± 0.03 Å; dmax, P(r) analysis (CRBN^midi [2]): 137.14 Å; Rg, Guinier analysis (CRBN^midi [2]): 23.41 ± 0.05 Å
